Assays:
phopholipase Dz2 = experiment: PLDz::GUS, follow-up of the expression of the gene encoding phospholipase Dz2 (GUS staining); format: in vivo, A. thaliana; settings: high phosphate medium + MC2 5 μM, FIG. 10
Description: (§1) pPLDZ2:GUS-GFP cell line is as described by Cruz-Ramirez et al. (Cruz-Ramirez et al., 2006), and expressed a GUS-GFP fusion under the control of the pldz2 promoter. […] Plants were examined for GUS activity by dipping the samples in a GUS staining solution (50 mM sodium phosphate buffer pH 7.0; 0.01% Triton X-100, 1 mM K3Fe(CN)6, 1 mM K4Fe(CN)6, 1 mg/ml 5-dromo-4-chloro-3-indolyl (3-D-GLUCURONIDE (X-Gluc A) and incubated at 37° C. over-night. After staining, the plants were fixed 2 hours in 50 mM sodium phosphate buffer pH 7.0; 1% glutaraldehyde; 4% formaldehyde. In response to phosphate starvation, the lipid metabolism is modified (Benning and Ohta, 2005). Plants preferentially synthesize sulpho- and galacto-lipids instead of phospholipids. Several enzymes are involved in this remobilisation.

PHT1;4 = experiment: Chemical genetic screen, pPHT1;4::GUS line (GUS activity in root tip); format: in vivo, A. thaliana; settings: plant grown on high phosphate medium (500 μM), FIG. 2
Description: pPHT1;4::GUS (DCJ 10) cell line is as described by Misson et al. (Misson et al., 2004). This cell line expresses the GUS reporter under the control of the promoter of the pht1;4 gene.
Plants were examined for GUS activity by dipping the samples in a GUS staining solution (50 mM sodium phosphate buffer pH 7.0; 0.01% Triton X-100, 1 mM K3Fe(CN)6, 1 mM K4Fe(CN)6, 1 mg/ml 5-dromo-4-chloro-3-indolyl (3-D-GLUCURONIDE (X-Gluc A) and incubated at 37° C. over-night. After staining, the plants were fixed 2 hours in 50 mM sodium phosphate buffer pH 7.0; 1% glutaraldehyde; 4% formaldehyde.
Chemical genetic screen was based on PHT1;4 expression using the line pPHT1;4::GUS (Misson et al., 2004). […] The formula of MC2 is the following: […]

Acid phosphatase = Acid phosphatase activity in root extract (spectrophotometric); format: in vivo; settings: 10 days old plants, high phosphate medium + 5 μM MC2, FIG. 4
Description: FIG. 4: Acid phosphatase activity was assayed spectrophotometrically in root extract from 10 days old plants grown in high phosphate medium, in low phosphate medium or in high phosphate medium supplied with 5 μM of MC2. Values represent the mean of 3 experiments±SD.
In response to phosphate deficiency, plants are able to secrete phosphatase in soil in order to remobilize phosphate from soil.

enzyme MGD3 = experiment: MGD3::GUS, follow-up of the expression of the gene encoding the enzyme MGD3 (GUS staining); format: in vivo, A. thaliana; settings: high phosphate medium + MC2 5 μM, FIG. 9
Description: as §1, with “pMGD3:GUS cells are” for “pPLDZ2:GUS-GFP cell line is”, “Kobayashi” for “Cruz-Ramirez”, “(Kobayashi” for “(Cruz-Ramirez”, “2004). In these cells, the GUS reporter is” for “2006), and”, “expressed” for “expressed a GUS-GFP fusion”, “mgd3” for “pldz2”

**Q.** Which results are given for `Cc1cccc(NC=C2C(=O)CC(C)(C)CC2=O)n1` [MC2]?
**A.** PLDζ2 expression (in words) (phopholipase Dz2): strongly expressed; expression of PHT1;4 (pPHT1;4::GUS) (PHT1;4): induce the expression of PHT1;4; phosphatase activity (Acid phosphatase): inducing phosphatase activity; MGD3 expression (in words) (enzyme MGD3): strongly expressed

Source: patent publication US9028855B2, “Plant additives and uses thereof to modulate the synthesis of membrane glycerolipids in planta” (Commissariat a l'Energie Atomique et aux Energies …, priority 2009, dated 2015)
